Our source for the IC50 values is patent US5068354A, “Epoxysuccinic acid derivatives” (Taisho Pharmaceutical Co., Ltd., priority 1989, dated 1991).

What all share (format): biochemical
The test system of one assay is cathepsin B. Put plainly: Inhibitory Activity against Cathepsin B. The following applies: pH 6.0, preincubated 40° C. 10 min, incubation 10 min. The procedure:
The activity was measured according to the method of A.J. Barrett et al [Biochem. J., vol.
To each of 0.95 ml of the reaction solutions containing 2.5 mM 2-mercaptoethanol, 1 mM disodium ethylenediaminetetraacetate, 0.1 M sodium potassium phosphate buffer (pH 6.0), 0.1% brij-35 (Nacalai Tesque Inc.), 1% dimethyl sulfoxide and different concentrations of the test drug was added 25 μl of 200 nM cathepsin B solution (Sigma Chemical Co.), and the mixture was preincubated for 40° C. for 10 minutes, after which 25 μl of 200 µM benzyloxycarbonyl L-phenylaranyl-L-arginine 4-methylcoumaryl-7-amide (Peptide Institute Inc.) was added for starting the reaction. After incubation at 40° C. for 10 minutes, the reaction was stopped by addition of 1 ml of 100 mM sodium chloroacetate in 100 mM sodium acetate (pH 4.3) The fluorescence of the liberated 7-amino-4-methylcoumarine was determined using a Shimazu fluorimeter RP-5000 with excitation at 380 n and emission measured at 440 nm. […] Chosen as a comparative drug is N-(L-3-trans-carboxy-oxirane-2-carbonyl)-L-isoleucyl-L-proline methyl ester which is included within the structural formula of the above U.K. Patent and is the closest compound to the compound of formula I in the structure.

A further assay has as its target T1, papain (Carica papaya, UniProt P00784).
T1 construct: purchased Sigma Chemical Co
T1 sequence (P00784 134-345): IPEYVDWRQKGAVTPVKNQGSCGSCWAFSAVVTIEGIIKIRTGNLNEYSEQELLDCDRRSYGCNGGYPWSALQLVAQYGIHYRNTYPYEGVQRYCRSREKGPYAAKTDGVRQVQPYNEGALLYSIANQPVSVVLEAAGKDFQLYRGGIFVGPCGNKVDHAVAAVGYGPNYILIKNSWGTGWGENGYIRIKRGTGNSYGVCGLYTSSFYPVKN
As to the kind of experiment: Inhibitory Activity against Papain. The following applies: pH 6.8, preincubated 40° C. 3 min, incubation 10 min, read-out: concentration of the test drug required for 50% inhibition (IC50). The procedure:
Test example 2 [Inhibitory Activity against Papain]
The activity was measured according to the method of A.J. Barrett et al [Biochem. J., vol. 201, page 189, (1982)].
To each of 0.95 ml of the reaction solutions containing 2.5 mM 2-mercaptoethanol, 1 mM disodium ethylenediaminetetraacetate, 0.1 M sodium potassium phosphate (pH 6.8), 0.1% brij-35 (Nacalai Tesque Inc.), 1% dimethyl sulfoxide and the various concentrations of the test drug was added 25 μl of 400 nM papain solution (Sigma Chemical Co.), and the mixture was preincubated for 40° C. for 3 minutes, after which 25 μof 200 μM benzyloxycarbonyl-L-phenylaranyl-L-arginine 4-methyl-coumaryl-7-amide (Peptide Institute Inc.) was added for starting the reaction. After incubation at 40° C. for 10 minutes, the reaction was stopped by addition of 1 ml of 100 mM sodium chloroacetate in 100 mM sodium acetate (pH 4.3). The fluorescence of the liberated 7-amino-4-methylcoumarine was determined using a Shimazu fluorimeter RF-5000 with excitation at 380 nm and emission measured at 440 nm. The concentration of the test drug required for 50% inhibition (IC50) was calculated from the inhibiting rate calculated using the value which was measured in a similar manner to the above but without the test drug.

A further assay has as its target T2, CANP (μCANP, Calpain I) (Homo sapiens, UniProt P07384).
T2 construct: purchased Nacalai Tesque Inc
T2 sequence (P07384 1-714): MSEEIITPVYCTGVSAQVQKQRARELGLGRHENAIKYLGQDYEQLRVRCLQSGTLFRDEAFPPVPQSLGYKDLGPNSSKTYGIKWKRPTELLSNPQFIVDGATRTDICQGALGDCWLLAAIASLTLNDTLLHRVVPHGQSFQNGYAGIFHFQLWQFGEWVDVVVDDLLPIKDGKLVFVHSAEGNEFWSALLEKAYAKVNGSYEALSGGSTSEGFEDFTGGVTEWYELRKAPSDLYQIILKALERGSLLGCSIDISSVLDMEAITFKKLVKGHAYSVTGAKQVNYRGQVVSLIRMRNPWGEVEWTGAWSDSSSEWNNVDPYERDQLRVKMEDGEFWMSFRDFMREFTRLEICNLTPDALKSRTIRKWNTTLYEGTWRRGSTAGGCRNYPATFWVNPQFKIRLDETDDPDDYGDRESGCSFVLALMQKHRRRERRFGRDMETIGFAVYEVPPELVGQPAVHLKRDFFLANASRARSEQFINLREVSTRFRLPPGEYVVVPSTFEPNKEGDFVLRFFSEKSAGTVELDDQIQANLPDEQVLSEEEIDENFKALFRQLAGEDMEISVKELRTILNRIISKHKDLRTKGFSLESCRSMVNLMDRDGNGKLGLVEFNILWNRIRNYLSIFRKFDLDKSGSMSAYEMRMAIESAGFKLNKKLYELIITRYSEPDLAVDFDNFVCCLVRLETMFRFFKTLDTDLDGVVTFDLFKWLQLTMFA
T2 sequence (P04632 1-268 partner): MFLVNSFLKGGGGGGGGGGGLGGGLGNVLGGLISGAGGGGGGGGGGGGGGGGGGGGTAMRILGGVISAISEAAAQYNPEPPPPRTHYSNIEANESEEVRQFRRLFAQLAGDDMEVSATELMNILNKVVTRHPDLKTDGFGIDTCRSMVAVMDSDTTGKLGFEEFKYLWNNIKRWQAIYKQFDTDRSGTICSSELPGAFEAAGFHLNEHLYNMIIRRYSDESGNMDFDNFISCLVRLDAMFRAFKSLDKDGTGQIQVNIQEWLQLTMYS
As to the kind of experiment: Inhibitory Activity against CANP. Particulars: alkali-denatured casein, pH 7.5, preincubated 30° C. 5 min, incubation 20 min, read-out: concentration of the test drug required for 50% inhibition (IC50). As for the experimental part:
Test example 1 [Inhibitory Activity against CANP]
The activity was measured according to the method of S. Ishiura et al [J. Biochem., vol. 84, page 225 (1978)].
Each of 0.45 ml of the reaction solutions containing 25 mM 2-mercaptoethanol, 5 mM calcium chloride, 0.1 M sodium glycerophosphate-HCl (pH 7.5), 0.24% alkali-denatured casein, 1% dimethyl sulfoxide and various concentrations of the test drug was preincubated at 30° C. for 5 minutes, and 5 μg of μCANP (50 μg) (Calpain I, Nacalai Tesque Inc.) was added or starting the reaction. After incubation at 30° C. for 20 minutes, the reaction was stopped by addition of 0.5 ml of 10% trichloroacetic acid. After allowing to stand at room temperature for 60 minutes, the mixture was centrifuged at 3000×g for 5 minutes, and the absorbance at 280 nm of the supernatant was determined. The remaining activity was obtained by reducing the blank value which was obtained in a similar manner to the above but adding 10% trichloroacetic acid prior to addition of μCANP from the above value. The concentration of the test drug required for 50% inhibition (IC50) was calculated from the inhibition rate obtained using the value which was measured in a similar manner to the above but without the test drug. The IC50 value of the compound obtained in Example 5 was more than 200,000 nM.

Take `CC[C@H](C)[C@H](NC(=O)[C@H]1O[C@@H]1C(=O)O)C(=O)N1CCC[C@H]1C(=O)OC` [Reference Example, N-(L-3-trans-carboxyoxirane-2-carbonyl)-L-isoleucyl-L-proline methyl ester, reference compound]: the IC50 in the assay on cathepsin B was 8800 nM.

Regarding `CCOC(=O)[C@H]1O[C@@H]1C(=O)N[C@H](C(=O)N1CCC[C@H]1C(=O)O)[C@@H](C)CC` [Example 5, N-(L-3-trans-ethoxycarbonyl-oxirane-2-carbonyl)-L-isoleucyl-L-proline], the IC50 was 16 µM on papain; greater than 200 µM at CANP (μCANP, Calpain I); 120 nM with cathepsin B.
